Columns and labels:
CDK12/CycK complex = CDK12/CycK complex (Homo sapiens, UniProt Q9NYV4); experiment: Measurement of CDK12 inhibitory activity by binding assay (BODIPY-FL labeled AT-7519 high concentration conditions, 1320 nM); conditions: inhibitory rate against CDK12 at 1 μM test compound, 1320 nM BODIPY-FL-labeled AT-7519, 8 nM CDK12/CycK
Experimental: (4) Measurement of CDK12 Inhibitory Activity by Binding Assay (BODIPY-FL Labeled AT-7519 High Concentration Conditions)
His-tagged CDK12/CycK complex was blended with a binding assay buffer supplemented with BODIPY-FL labeled AT-7519, terbium-labeled streptavidin and biotin-labeled anti-histidine antibody. This solution was added to an assay plate containing a test compound dispensed therein, and the mixture was left standing for 120 min at room temperature. The final concentration of CDK12/CycK complex, BODIPY-FL-labeled AT-7519, terbium-labeled streptavidin and biotin-labeled anti-histidine antibody was set to 8 nM, 1320 nM, 0.2 nM, and 0.4 nM, respectively. The fluorescence intensity derived from terbium and BODIPY-FL was measured using Envision. The signal value of each well was determined using the TR-FRET ratio calculated by the following formula. TR-FRET ratio=(fluorescence value of BODIPY-FL)÷(fluorescence value of terbium)
The inhibitory rate (%) of the test compound against CDK12 was calculated by the following formula. Inhibitory rate (%)=(1−(TR-FRET ratio of test compound−blank)÷(control−blank))×100
The TR-FRET ratio of the CDK12 enzyme reaction mixture under compound non-addition conditions is indicated as control, and the TR-FRET ratio under 30 μM AT-7519 addition conditions is indicated as blank.
The inhibitory rate of the test compound against CDK12 at 1 μM is shown below.

A2780 cells = experiment: In vitro proliferation suppression test (CellTiter-Glo); type: cell-based, human; conditions: Homo sapiens, 72 h, A2780 cell proliferation inhibitory rate at 1 μM test compound, three days
Experimental: Experimental Example 4: In Vitro Proliferation Suppression Test
The proliferation suppressive activity of compound in A2780 cells was evaluated by the following method.
A2780 cells were seeded in a 384-well white plate at a cell density of 1,000 cells/40 μL/well or a 96-well white plate at a cell density of 1,000 cells/90 μL/well using an assay medium (RPMI1640 medium containing 10% fetal bovine serum (FUJIFILM Wako Pure Chemical Corporation)) and incubated at 37° C. in 5% CO2.
The next day, a test compound dissolved in dimethyl sulfoxide (DMSO) was diluted with an assay medium, the obtained compound solution was added by 40 μL/well or 10 μL/well to each well of the plate containing A2780 cells and the mixture was incubated (test compound addition group). In addition, a similar reaction was performed without adding the test compound (test compound non-addition group).
Three days later, 80 μL or 100 μL of CellTiter-Glo reagent (Promega) was added, and the mixture was stirred for 10 min. Thereafter, the luminescence of each well was measured by ARVO-MX multilabel counter (Perkin Elmer Inc.).
The proliferation inhibitory rate (%) of each test compound against A2780 cells was calculated by the following calculation formula. Proliferation inhibitory rate (%)=(1−luminescence of test compound addition group÷luminescence of test compound non-addition group)×100
The A2780 cell proliferation inhibitory rate (%) of 1 μM test compound is shown below.

Sequence of CDK12/CycK complex (Q9NYV4 whole entry, species assumed): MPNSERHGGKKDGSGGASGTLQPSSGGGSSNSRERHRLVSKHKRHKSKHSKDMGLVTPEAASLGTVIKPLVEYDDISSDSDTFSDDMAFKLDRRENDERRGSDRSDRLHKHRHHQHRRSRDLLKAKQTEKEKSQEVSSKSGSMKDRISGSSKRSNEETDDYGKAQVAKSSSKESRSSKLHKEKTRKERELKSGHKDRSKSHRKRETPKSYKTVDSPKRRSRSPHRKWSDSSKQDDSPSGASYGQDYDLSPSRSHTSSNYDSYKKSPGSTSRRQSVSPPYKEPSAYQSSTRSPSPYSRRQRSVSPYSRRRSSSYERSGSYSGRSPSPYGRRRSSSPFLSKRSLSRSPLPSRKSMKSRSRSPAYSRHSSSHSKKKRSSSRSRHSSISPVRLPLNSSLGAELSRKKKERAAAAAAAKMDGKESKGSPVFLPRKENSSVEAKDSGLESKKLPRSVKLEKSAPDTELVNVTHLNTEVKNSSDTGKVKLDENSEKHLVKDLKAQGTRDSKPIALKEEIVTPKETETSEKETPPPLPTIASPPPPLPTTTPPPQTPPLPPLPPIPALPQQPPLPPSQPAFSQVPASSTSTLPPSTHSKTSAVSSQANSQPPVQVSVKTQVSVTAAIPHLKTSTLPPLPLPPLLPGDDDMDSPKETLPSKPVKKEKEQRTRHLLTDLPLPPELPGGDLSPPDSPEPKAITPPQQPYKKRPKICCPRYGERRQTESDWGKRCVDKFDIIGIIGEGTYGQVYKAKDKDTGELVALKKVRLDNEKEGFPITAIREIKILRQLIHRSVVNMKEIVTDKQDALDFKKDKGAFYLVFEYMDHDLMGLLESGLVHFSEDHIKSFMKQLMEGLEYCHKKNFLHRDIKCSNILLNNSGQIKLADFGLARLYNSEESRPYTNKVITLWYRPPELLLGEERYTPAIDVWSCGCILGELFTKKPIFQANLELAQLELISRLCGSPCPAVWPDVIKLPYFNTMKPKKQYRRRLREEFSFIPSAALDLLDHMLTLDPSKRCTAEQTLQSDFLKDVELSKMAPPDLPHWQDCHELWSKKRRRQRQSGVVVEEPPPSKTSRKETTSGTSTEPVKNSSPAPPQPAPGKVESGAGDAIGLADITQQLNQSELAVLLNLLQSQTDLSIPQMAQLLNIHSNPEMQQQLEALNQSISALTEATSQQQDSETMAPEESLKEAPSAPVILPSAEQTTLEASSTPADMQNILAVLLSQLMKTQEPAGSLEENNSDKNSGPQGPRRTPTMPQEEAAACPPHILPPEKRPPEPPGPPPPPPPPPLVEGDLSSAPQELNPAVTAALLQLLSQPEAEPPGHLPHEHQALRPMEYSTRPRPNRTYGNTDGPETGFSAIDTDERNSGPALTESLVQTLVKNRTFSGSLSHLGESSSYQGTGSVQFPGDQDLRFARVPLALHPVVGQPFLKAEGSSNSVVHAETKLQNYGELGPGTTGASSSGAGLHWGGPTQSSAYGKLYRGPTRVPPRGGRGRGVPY
Sequence of CDK12/CycK complex (O75909 whole entry partner, species assumed): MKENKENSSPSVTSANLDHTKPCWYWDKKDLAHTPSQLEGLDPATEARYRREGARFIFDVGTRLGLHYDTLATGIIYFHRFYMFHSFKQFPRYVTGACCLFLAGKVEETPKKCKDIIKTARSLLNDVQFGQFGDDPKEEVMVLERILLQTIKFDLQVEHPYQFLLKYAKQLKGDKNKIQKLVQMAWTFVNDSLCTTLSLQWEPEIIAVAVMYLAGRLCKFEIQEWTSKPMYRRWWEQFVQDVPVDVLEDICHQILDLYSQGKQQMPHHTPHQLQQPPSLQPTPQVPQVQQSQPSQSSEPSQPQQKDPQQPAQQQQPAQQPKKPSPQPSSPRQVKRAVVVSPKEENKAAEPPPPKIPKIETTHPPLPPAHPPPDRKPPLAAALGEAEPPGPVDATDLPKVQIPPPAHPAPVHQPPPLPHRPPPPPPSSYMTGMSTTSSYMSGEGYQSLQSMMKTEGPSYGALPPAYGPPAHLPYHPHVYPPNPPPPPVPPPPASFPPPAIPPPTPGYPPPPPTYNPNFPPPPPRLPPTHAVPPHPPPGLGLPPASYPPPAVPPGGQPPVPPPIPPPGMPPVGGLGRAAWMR

Compound | inhibition at 1 µM (CDK12/CycK complex) [%] | inhibition at 1 µM (A2780 cells) [%]
COc1ncc(-c2cnc(N(C(=O)NCC(F)(F)F)[C@H]3CC[C@H](Nc4ncc(C(F)(F)F)c(-c5n[nH]cc5Cl)n4)CC3)cn2)cn1 [Example 743, 1-(trans-4-((4-(4-chloro-1H-pyrazol-3-yl)-5-(trifluoromethyl)pyrimidin-2-yl)amino)cyclohexyl)-1-(5-(2-methoxypyrimidin-5-yl)pyrazin-2-yl)-3-(2,2,2-trifluoroethyl)urea] | 81 | 95
COc1ncc(-c2cnc(N(C(=O)NCC(F)F)[C@H]3CC[C@H](Nc4ncc(C(F)(F)F)c(-c5n[nH]cc5Cl)n4)CC3)cn2)cn1 [Example 744, 1-(trans-4-((4-(4-chloro-1H-pyrazol-3-yl)-5-(trifluoromethyl)pyrimidin-2-yl)amino)cyclohexyl)-3-(2,2-difluoroethyl)-1-(5-(2-methoxypyrimidin-5-yl)pyrazin-2-yl)urea] | 92 | 97
COc1ncc(-c2cnc(N(C(=O)NCC(C)(C)O)[C@H]3CC[C@H](Nc4ncc(C(F)(F)F)c(-c5ccn(C(F)F)n5)n4)CC3)cn2)cn1 [Example 804, 1-(trans-4-((4-(1-(difluoromethyl)-1H-pyrazol-3-yl)-5-(trifluoromethyl)pyrimidin-2-yl)amino)cyclohexyl)-3-(2-hydroxy-2-methylpropyl)-1-(5-(2-methoxypyrimidin-5-yl)pyrazin-2-yl)urea] | 94 | 96
CCOCC(=O)N(c1cnc(-c2cnc(OC)nc2)cn1)[C@H]1CC[C@H](Nc2ncc(C(F)(F)F)c(-c3cncc(S(C)(=O)=O)c3)n2)CC1 [Example 827, 2-ethoxy-N-(trans-4-((4-(5-(methanesulfonyl)pyridin-3-yl)-5-(trifluoromethyl)pyrimidin-2-yl)amino)cyclohexyl)-N-(5-(2-methoxypyrimidin-5-yl)pyrazin-2-yl)acetamide] | 109 | 99
COc1ncc(-c2cnc(N(C(=O)OCC(C)(C)O)[C@H]3CC[C@H](Nc4ncc(C(F)(F)F)c(-c5n[nH]cc5Cl)n4)CC3)cn2)cn1 [Example 841, 2-hydroxy-2-methylpropyl (trans-4-((4-(4-chloro-1H-pyrazol-3-yl)-5-(trifluoromethyl)pyrimidin-2-yl)amino)cyclohexyl) (5-(2-methoxypyrimidin-5-yl)pyrazin-2-yl)carbamate] | 79 | 99
COc1ncc(-c2cnc(N(C(=O)OCC(F)F)[C@H]3CC[C@H](Nc4ncc(C(F)(F)F)c(-c5cncc(S(C)(=O)=O)c5)n4)CC3)cn2)cn1 [Example 766, 2,2-difluoroethyl (trans-4-((4-(5-(methanesulfonyl)pyridin-3-yl)-5-(trifluoromethyl)pyrimidin-2-yl)amino)cyclohexyl) (5-(2-methoxypyrimidin-5-yl)pyrazin-2-yl)carbamate] | 96 | 99
COc1ncc(-c2cnc(N(C(=O)OCC(C)(C)O)[C@H]3CC[C@H](Nc4ncc(C(F)(F)F)c(-c5cncc(S(C)(=O)=O)c5)n4)CC3)cn2)cn1 [Example 836, 2-hydroxy-2-methylpropyl (trans-4-((4-(5-(methanesulfonyl)pyridin-3-yl)-5-(trifluoromethyl)pyrimidin-2-yl)amino)cyclohexyl) (5-(2-methoxypyrimidin-5-yl)pyrazin-2-yl)carbamate] | 106 | 99
COc1ncc(-c2cnc(N(C(=O)CCC(F)F)[C@H]3CC[C@H](Nc4ncc(C(F)(F)F)c(-c5cncc(S(C)(=O)=O)c5)n4)CC3)cn2)cn1 [Example 826, 4,4-difluoro-N-(trans-4-((4-(5-(methanesulfonyl)pyridin-3-yl)-5-(trifluoromethyl)pyrimidin-2-yl)amino)cyclohexyl)-N-(5-(2-methoxypyrimidin-5-yl)pyrazin-2-yl)butanamide] | 106 | 98
COc1ncc(-c2ccc(N(C(=O)NCC(F)(F)F)[C@H]3CC[C@H](Nc4ncc(C(F)(F)F)c(-c5n[nH]cc5Cl)n4)CC3)nc2)cn1 [Example 729, 1-(trans-4-((4-(4-chloro-1H-pyrazol-3-yl)-5-(trifluoromethyl)pyrimidin-2-yl)amino)cyclohexyl)-1-(5-(2-methoxypyrimidin-5-yl)pyridin-2-yl)-3-(2,2,2-trifluoroethyl)urea] | 92 | 98
CCNC(=O)N(c1cnc(-c2cnn(C)c2)cn1)[C@H]1CC[C@H](Nc2ncc(C(F)(F)F)c(-c3ccn(C(F)F)n3)n2)CC1 [Example 764, 1-(trans-4-((4-(1-(difluoromethyl)-1H-pyrazol-3-yl)-5-(trifluoromethyl)pyrimidin-2-yl)amino)cyclohexyl)-3-ethyl-1-(5-(1-methyl-1H-pyrazol-4-yl)pyrazin-2-yl)urea] | 91 | 95
COc1ncc(-c2cnc(N(C(=O)OCCN(C)C)[C@H]3CC[C@H](Nc4ncc(C(F)(F)F)c(-c5cncc(S(C)(=O)=O)c5)n4)CC3)cn2)cn1 [Example 767, 2-(dimethylamino)ethyl (trans-4-((4-(5-(methanesulfonyl)pyridin-3-yl)-5-(trifluoromethyl)pyrimidin-2-yl)amino)cyclohexyl) (5-(2-methoxypyrimidin-5-yl)pyrazin-2-yl)carbamate] | 102 | 99
CCNC(=O)N(c1cnc(-c2cnc(OC)nc2)cn1)[C@H]1CC[C@H](Nc2ncc(C(F)(F)F)c(-c3cncc(S(C)(=O)=O)c3)n2)CC1 [Example 799, 3-ethyl-1-(trans-4-((4-(5-(methanesulfonyl)pyridin-3-yl)-5-(trifluoromethyl)pyrimidin-2-yl)amino)cyclohexyl)-1-(5-(2-methoxypyrimidin-5-yl)pyrazin-2-yl)urea] | 96 | 99
Cn1cc(-c2cnc(N(C(=O)OCC(F)F)[C@H]3CC[C@H](Nc4ncc(C(F)(F)F)c(-c5cncc(S(C)(=O)=O)c5)n4)CC3)cn2)cn1 [Example 820, 2,2-difluoroethyl (trans-4-((4-(5-(methanesulfonyl)pyridin-3-yl)-5-(trifluoromethyl)pyrimidin-2-yl)amino)cyclohexyl) (5-(1-methyl-1H-pyrazol-4-yl)pyrazin-2-yl)carbamate] | 99 | 99
COc1ncc(-c2ccc(N(C(=O)NCC(F)F)[C@H]3CC[C@H](Nc4ncc(C(F)(F)F)c(-c5cncc(S(C)(=O)=O)c5)n4)CC3)nc2)cn1 [Example 741, 3-(2,2-difluoroethyl)-1-(trans-4-((4-(5-(methane-sulfonyl)pyridin-3-yl)-5-(trifluoromethyl)pyrimidin-2-yl)amino)cyclohexyl)-1-(5-(2-methoxypyrimidin-5-yl)pyridin-2-yl)urea] | 87 | 
COCC(=O)N(c1cnc(-c2cnn(C)c2)cn1)[C@H]1CC[C@H](Nc2ncc(C(F)(F)F)c(-c3cncc(S(C)(=O)=O)c3)n2)CC1 [Example 812, N-(trans-4-((4-(5-(methanesulfonyl)pyridin-3-yl)-5-(trifluoromethyl)pyrimidin-2-yl)amino)cyclohexyl)-2-methoxy-N-(5-(1-methyl-1H-pyrazol-4-yl)pyrazin-2-yl)acetamide] | 95 | 

— patent US11584737B2, “Heterocyclic compound” (TAKEDA PHARMACEUTICAL COMPANY LIMITED, priority 2018, dated 2023)
